Several values for one entry are separate records, joined by “and”; a condition that tells them apart may be missing. Equal entries are not always repeated. Where two headings read alike, the source gives them in different places.
Assay: Pharmacokinetic analysis in rat plasma
Assay type: in vivo
Conditions: for Vd: read-out: VDss; for bioavailability: read-out: % Bioavailability F
Experimental: The purpose of the study was to measure the concentration of FQI-34 in rat plasma samples. The study was performed under non-GLP conditions. All work was performed with appropriate local health regulation and ethical approval. Plasma samples were taken at 0.08, 0.25, 0.5, 1, 2, 4, 8, and 24 hours. Plasma samples were crashed with three volumes of methanol containing an analytical internal standard (propranolol/bucetin/diclofenac). Samples were then centrifuged to remove precipitated protein, and the supernatant was analyzed by LC-MS/MS using a Waters Xevo TQ mass spectrometer coupled with an Acuity HPLC and a CTC PAL chilled autosampler, all controlled by MassLynx software (Waters). The analyte signal was optimized prior to analysis. After separation on a C18 reverse phase HPLC column (Waters Acquity HSS T3 2.1×50 mm 1.8 μM) using an acetonitrile-water gradient system, peaks were analyzed by mass spectrometry (MS) using ESI ionization in MRM mode. All plasma samples were compared to a calibration curve prepared in rat blank plasma.
Male Sprague-Dawley rats were obtained from a commercial source and housed in an AAALAC-approved facility until dosing. For IV dosing, FQI-34 was dissolved in 10% ethanol/16% PEG-400/74% saline at 0.4 mg/mL and in a 1% methylcellulose/0.5% Tween-80 suspension at 10 mg/mL for PO dosing. Three rats per group were dosed by a single IV bolus (10 mL/kg) or PO (10 mL/kg).
Plasma PK-parameters were independently verified and interpreted using PK-solver: An Excel add-In (Zhang, Y. et al. PKSolver: An add-in program for pharmacokinetic and pharmacodynamic data analysis in Microsoft Excel. Comput. Methods Programs Biomed. (2010) 99, 306-314), via a non-compartmental analysis using the linear-trapezoidal method (Fan, J. Pharmacokinetics. Biochemical Pharmacology (2014) 87, 93-120).

[1] = male, Sprague-Dawley, rat, plasma, iv, 4 mg/kg, rat plasma, IV 4 mg/kg, AVERAGE
[2] = male, Sprague-Dawley, rat, plasma, iv, 4 mg/kg, rat plasma, IV 4 mg/kg, individual rats A, B, C
[3] = rat plasma, IV 4 mg/kg, individual rats A, B, C, 4 mg/kg
[4] = rat plasma, PO 100 mg/kg, individual rats A, B, C, 100 mg/kg
[5] = rat, IV 4 mg/kg, individual rats A, B, C, 4 mg/kg

Compound: CCOc1cc(N(C)C)ccc1C1CC(=O)Nc2cc3c(cc21)OCO3 (stereo not drawn) [FQI-34, 8-(4-(dimethylamino)-2-ethoxyphenyl)-7,8-dihydro-[1,3]dioxolo[4,5-g]quinolin-6(5H)-one]
- clearance (male, Sprague-Dawley, rat, plasma, iv, 4 mg/kg, IV 4 mg/kg, AVERAGE): 73 mL/min/kg
- clearance (male, Sprague-Dawley, rat, plasma, iv, 4 mg/kg, IV 4 mg/kg, individual rats A, B, C): 65 mL/min/kg
- AUC(0-inf) [1]: 935 ng·h/mL
- half-life [1]: 48.6 min
- C0 (male, Sprague-Dawley, rat, plasma, iv, 4 mg/kg, rat plasma, IV 4 mg/kg, AVERAGE, read-out: C0): 423 ng/mL
- Cmax (male, Sprague-Dawley, rat, plasma, iv, 4 mg/kg, rat plasma, IV 4 mg/kg, AVERAGE, read-out: Cmax): 552 ng/mL
- Tmax (male, Sprague-Dawley, rat, plasma, iv, 4 mg/kg, rat plasma, IV 4 mg/kg, AVERAGE, read-out: Tmax): 0.42 h
- AUC(0-inf) [2]: 1020 ng·h/mL
- half-life [2]: 43.8 min
- C0 (male, Sprague-Dawley, rat, plasma, iv, 4 mg/kg, rat plasma, IV 4 mg/kg, individual rats A, B, C, read-out: C0): 434 ng/mL
- Cmax (male, Sprague-Dawley, rat, plasma, iv, 4 mg/kg, rat plasma, IV 4 mg/kg, individual rats A, B, C, read-out: Cmax): 545 ng/mL
- Tmax (male, Sprague-Dawley, rat, plasma, iv, 4 mg/kg, rat plasma, IV 4 mg/kg, individual rats A, B, C, read-out: Tmax): 0.5 h
- Vd (male, Sprague-Dawley, rat, plasma, iv, 4 mg/kg, rat, IV 4 mg/kg, AVERAGE): 5.1 L/kg
- Vd (male, Sprague-Dawley, rat, plasma, iv, 4 mg/kg, rat, IV 4 mg/kg, individual rats A, B, C): 4.6 L/kg
- AUC(0-inf) (male, Sprague-Dawley, rat, plasma, po, 100 mg/kg, rat plasma, PO 100 mg/kg, AVERAGE): 4960 ng·h/mL
- Cmax (male, Sprague-Dawley, rat, plasma, po, 100 mg/kg, rat plasma, PO 100 mg/kg, AVERAGE, read-out: Cmax): 526 ng/mL
- Tmax (male, Sprague-Dawley, rat, plasma, po, 100 mg/kg, rat plasma, PO 100 mg/kg, AVERAGE, read-out: Tmax): 2.7 h
- AUC(0-inf) (male, Sprague-Dawley, rat, plasma, po, 100 mg/kg, rat plasma, PO 100 mg/kg, individual rats A, B, C): 4900 ng·h/mL
- Cmax (male, Sprague-Dawley, rat, plasma, po, 100 mg/kg, rat plasma, PO 100 mg/kg, individual rats A, B, C, read-out: Cmax): 500 ng/mL
- Tmax (male, Sprague-Dawley, rat, plasma, po, 100 mg/kg, rat plasma, PO 100 mg/kg, individual rats A, B, C, read-out: Tmax): 4 h
- bioavailability (male, Sprague-Dawley, rat, plasma, po, 100 mg/kg, rat, PO 100 mg/kg, AVERAGE): 21%
- bioavailability (male, Sprague-Dawley, rat, plasma, po, 100 mg/kg, rat, PO 100 mg/kg, individual rats A, B, C): 21%
- AUC(0-∞) [3]: 759 ng·h/mL and 1028 ng·h/mL
- C0 [3]: 446 ng/mL and 390 ng/mL
- Cmax [3]: 548 ng/mL and 564 ng/mL
- T1/2 [3]: 43.2 min and 59.4 min
- Tmax [3]: 0.25 h
- AUC(0-∞) [4]: 4026 ng·h/mL and 5936 ng·h/mL
- Cmax [4]: 501 ng/mL and 577 ng/mL
- Tmax [4]: 2.0 h
- CL [5]: 88 mL/min/kg
- VDss [5]: 5.4 L/kg and 5.3 L/kg
- % Bioavailability F (rat, PO 100 mg/kg, individual rats A, B, C, 100 mg/kg): 17% and 25%

— US10392398B2, “Inhibitors of Late SV40 Factor (LSF) as cancer chemotherapeutics” (TRUSTEES OF BOSTON UNIVERSITY, priority 2010, dated 2019)
